From US7629355B2 (priority 2003, dated 2009)
Structures can show the parent of a compound that is named as a salt. Where two headings read alike, the source gives them in different places.

Tests used:
[1] = mouse jump test (physical dependence); assay type: in vivo; details: 30 min after 100 mg/kg naloxone on day 4; test compound ip days 1-3
Protocol: Antagonist activity, considered a measure of nonaddictiveness, was measured by the opiate receptor assay of Pert et al. (1974) Mol. Pharmacol. 10:868. Antagonist activity was also measured using the induced Straub tail method as described by DeGraw et al. (1978) J. Med Chem. 21:415, and Blumberg et al. (1973) Advances in Chemical Psychopharmacology, Vol. 8, M. Braudy et al. eds. (Raven Press, New York, N.Y.), at pp. 33-43. A direct and simple assay measuring physical dependence is the mouse jump test described by Saelens et al. (1971) Arch. Int. Pharmacodyn. 190:213.
Physical dependence, a more direct measure of non-addictive properties than antagonist activity, was evaluated using the mouse jump test. Mice were injected intraperitoneally 5 times on day 1 with increasing doses of test compound ranging from 8-100 mg/kg body weight. On days 2 and 3 the mice were given 100 mg/kg 4 times. On day 4 all mice received 100 mg/kg of the antagonist naloxone in a single dose. The mice were then caged for 30 min, and a record was made of the number jumping during this time.

[2] = induced Straub tail method (antagonist activity); details: for Antagonism (μmol/kg) Straub Tail: in vivo
[3] = reversal of morphine-induced analgesia in the tail flick assay; details: reversal of analgesia induced by morphine
κ receptor [4] = molecular target: T1, κ receptor (Homo sapiens, UniProt P41145); test: biochemical; assay type: binding
T1 construct: expressed in transfected cells; host or cells: CHO cells

[5] = in animals; cited from earlier work
δ receptor [6] = molecular target: T2, δ receptor (Homo sapiens, UniProt P41143); test: biochemical; assay type: biochemical
T2 construct: expressed in transfected cells; host or cells: CHO cells

κ receptor [7] = molecular target: T1, κ receptor; test: biochemical; assay type: biochemical
δ receptor [8] = molecular target: T2, δ receptor; test: biochemical; assay type: binding
μ receptor [9] = molecular target: T3, μ receptor (Homo sapiens, UniProt P35372); test: biochemical; assay type: binding
opiate receptor = opiate receptor assay of Pert et al.; assay type: binding
Text: (Raven Press, New York, N.Y.), at pp. 33-43. […] Int. Pharmacodyn.

μ receptor [10] = molecular target: T3, μ receptor; test: biochemical; assay type: biochemical
μ receptor [11] = molecular target: T3, μ receptor; test: pA2 analysis of antagonist activity against DAMGO dose response curve; assay type: biochemical
[12] = −NaCl, read-out: Opiate Receptor Inhibition (IC50, nM) −NaCl
[13] = +NaCl, read-out: Opiate Receptor Inhibition (IC50, nM) +NaCl

T3 sequence (P35372 whole entry): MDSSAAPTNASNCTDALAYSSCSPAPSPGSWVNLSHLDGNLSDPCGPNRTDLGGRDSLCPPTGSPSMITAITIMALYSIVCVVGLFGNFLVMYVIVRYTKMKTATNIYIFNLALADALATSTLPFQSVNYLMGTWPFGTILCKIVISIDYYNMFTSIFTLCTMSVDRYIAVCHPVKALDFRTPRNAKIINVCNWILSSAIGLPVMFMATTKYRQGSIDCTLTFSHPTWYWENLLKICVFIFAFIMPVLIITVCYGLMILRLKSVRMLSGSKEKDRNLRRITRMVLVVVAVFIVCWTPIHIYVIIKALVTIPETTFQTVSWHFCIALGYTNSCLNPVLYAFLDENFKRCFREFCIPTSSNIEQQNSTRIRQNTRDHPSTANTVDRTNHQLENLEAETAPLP
T2 sequence (P41143 whole entry): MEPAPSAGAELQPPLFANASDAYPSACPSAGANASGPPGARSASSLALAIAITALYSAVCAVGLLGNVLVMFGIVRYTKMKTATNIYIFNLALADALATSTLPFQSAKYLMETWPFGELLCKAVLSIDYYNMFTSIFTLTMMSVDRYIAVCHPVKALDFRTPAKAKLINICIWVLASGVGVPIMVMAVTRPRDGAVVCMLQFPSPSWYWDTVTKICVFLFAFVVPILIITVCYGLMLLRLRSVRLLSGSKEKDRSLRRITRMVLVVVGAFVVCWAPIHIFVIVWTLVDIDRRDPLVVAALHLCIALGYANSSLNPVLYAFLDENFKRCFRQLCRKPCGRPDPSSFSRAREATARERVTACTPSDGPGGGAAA
T1 sequence (P41145 whole entry): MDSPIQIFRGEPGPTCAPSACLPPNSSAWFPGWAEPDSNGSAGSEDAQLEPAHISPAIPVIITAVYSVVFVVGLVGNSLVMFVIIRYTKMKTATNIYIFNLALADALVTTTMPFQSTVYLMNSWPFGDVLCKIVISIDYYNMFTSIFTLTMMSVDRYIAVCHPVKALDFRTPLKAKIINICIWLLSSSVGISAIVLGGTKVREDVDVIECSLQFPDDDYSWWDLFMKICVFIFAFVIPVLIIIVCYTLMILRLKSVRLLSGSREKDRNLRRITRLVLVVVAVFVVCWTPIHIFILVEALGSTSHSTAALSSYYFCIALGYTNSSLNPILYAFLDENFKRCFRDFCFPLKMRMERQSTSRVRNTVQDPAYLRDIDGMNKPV

With `CN1CC[C@]23c4c5ccc(O)c4O[C@H]2[C@@H](O)C=C[C@H]3[C@H]1C5` [morphine] the “number of mice jumping” value [1] was 10/10, the “Antagonism (μmol/kg) Straub Tail” value [2] was 1 µmol/kg and the “Antagonism (μmol/kg) Tail Flick” value [3] was 2 µmol/kg.
For `C[C@H](C1CC1)N1CC[C@]23c4c5ccc(O)c4O[C@H]2[C@@H](O)C=C[C@H]3[C@H]1C5` [compound 1, N-[(1R)-1-cyclopropylethyl]-normorphine], the Ki (κ receptor [4]) is given as 0.43 ± 0.11 nM, the respiratory depression [5] is given as “free of respiratory depression” and the therapeutic index [5] is given as “high therapeutic index”. For the same compound, the EC50 (δ receptor [6]) was 39.6 ± 6.3 nM, the “functional character at δ” value (δ receptor [6]) was “partial agonist” and the “δ % Stim” value (δ receptor [6]) was 22 ± 6%. For the same compound, the EC50 (κ receptor [7]) was 15.2 ± 2.5 nM, the “functional character at κ” value (κ receptor [7]) was “partial agonist” and the “κ % Stim” value (κ receptor [7]) was 63 ± 1%. The Ki (δ receptor [8]) was 3.97 ± 0.98 nM, the Ki (μ receptor [9]) was 0.35 ± 0.06 nM and the “affinity in the opiate assay relative to N-sec-butyl-normorphine” value (opiate receptor; relative to N-sec-butyl-normorphine) was “about 122 times”. The “affinity in the opiate assay relative to morphine” value (opiate receptor; relative to morphine) was “over 43 times”, the IC50 (opiate receptor; [12]) was 7 nM and the EC50 (μ receptor [10]) was > 10000 nM. For the same compound, the “functional character at the μ receptor” value (μ receptor [10]) was “pure antagonist”, the “Antagonism (μmol/kg) Tail Flick” value [3] was >213 µmol/kg and the Kb (μ receptor [11]) was 1.43 ± 0.16 nM. The Slope (μ receptor [11]; n=6) was −1.04 and the pA2 (μ receptor [11]; n=6) was 8.84±0.06.
For (−)SKF 10,047, the “κ % Stim” value (κ receptor [7]) was 49 ± 13% and the EC50 (κ receptor [7]; read-out: κ EC50) was 5.38 ± 2.3 nM.
For `CCC(C)N1CCC23c4c5ccc(O)c4OC2C(O)C=CC3C1C5` [N-sec-butyl normorphine (R), reference compound], the IC50 (opiate receptor; [13]) was 110 nM, the IC50 (opiate receptor; [12]) was 60 nM and the “Antagonism (μmol/kg) Straub Tail” value [2] was 16.2 µmol/kg.
Work on `CC(C1CC1)N1CCC23c4c5ccc(O)c4OC2C(O)C=CC3C1C5` (mixture of isomers) (as salt: salt) [N-α-methylcyclopropylmethyl-normorphine (mixture)] [N-[(1R,S)-1-Cyclopropylethyl]-Normorphine] yielded a melting point of 248 to 250 °C.
With `CCC(C)N1CCC23c4c5ccc(O)c4OC2C(O)C=CC3C1C5` [N-sec-butyl normorphine (S), reference compound] the IC50 (opiate receptor; [13]) was 62 nM, the IC50 (opiate receptor; [12]) was 28 nM and the “Antagonism (μmol/kg) Straub Tail” value [2] was 7.4 µmol/kg.
With `CC(C1CC1)N1CCC23c4c5ccc(O)c4OC2C(O)C=CC3C1C5` (single isomer, unassigned; diastereomer b) [N-α-methylcyclopropylmethyl-normorphine (S isomer), N-methylcyclopropylmethyl-normorphine (diastereomer B)] the melting point was 209 to 210 °C, the IC50 (opiate receptor; [12]) was 0.23 nM and the “Antagonism (μmol/kg) Tail Flick” value [3] was >213 µmol/kg.
With `C[C@H]1[C@H]2Cc3ccc(O)cc3[C@]1(C)CCN2CC1CC1` [Cyclazocine, reference compound] the EC50 (δ receptor [6]) was 2.9 ± 1.9 nM, the “δ % Stim” value (δ receptor [6]) was 82 ± 9% and the EC50 (κ receptor [7]) was 0.8 ± 0.2 nM. For the same compound, the “κ % Stim” value (κ receptor [7]) was 80% and the “μ % Stim” value (μ receptor [10]) was 33 ± 18%.
In the case of `C=CCN1CC[C@]23c4c5ccc(O)c4O[C@H]2[C@@H](O)C=C[C@H]3[C@H]1C5` [nalorphine, reference compound], the IC50 (opiate receptor; [13]) is reported as 6 nM, the IC50 (opiate receptor; [12]) is reported as 2 nM and the “Antagonism (μmol/kg) Tail Flick” value [3] is reported as 2.04 µmol/kg.
With `C[C@@H](NC(=O)[C@@H](N)Cc1ccc(O)cc1)C(=O)NCC(=O)N(C)[C@@H](Cc1ccccc1)C(=O)NCCO` [DAMGO, [D-Ala^2, NMePhe^4, Gly^5-ol]-enkephalin] the “κ % Stim” value (κ receptor [7]) was 62%.
For “[D-Pen^2,D-Pen^5]-enkephalin [DPDPE, reference compound]”, the “κ % Stim” value (κ receptor [7]) was 77%.
In the case of `CC(C1CC1)N1CCC23c4c5ccc(O)c4OC2C(O)C=CC3C1C5` (mixture of isomers) [N-α-methylcyclopropylmethyl-normorphine (mixture)] [N-[(1R,S)-1-Cyclopropylethyl]-Normorphine], the IC50 (opiate receptor; [13]) is reported as 6 nM, the IC50 (opiate receptor; [12]) is reported as 3 nM and the “antagonist potency relative to nalorphine” value ([2]; Straub tail method) is reported as “about one-fourth”. The “Antagonism (μmol/kg) Straub Tail” value [2] was 4.5 µmol/kg.
